# Test results taken from US20250154115A1, “ARYLBENZOISOXAZOLE COMPOUNDS AS IP6K AND IPMK INHIBITORS AND METHODS OF USE THEREOF” (THE UNIVERSITY OF NORTH CAROLINA AT CHAPEL HILL, priority 2022, published 2025).
# pIC50: −log10 of the molar value. Where a name gives a salt, the structure may show the parent alone.
# Tests used:
# Assay type in all cases: biochemical
# IPMK = IPMK (Homo sapiens (Human), UniProt Q8NFU5); test: Enzyme-coupled assay, IPMK IC50
# IP6K3 = IP6K3 (Homo sapiens (Human), UniProt Q96PC2); test: Enzyme-coupled assay of IP6K3 activity (Dipp1-coupled, malachite green Pi release)
# IP6K1 = IP6K1 (Homo sapiens (Human), UniProt Q92551); test: Enzyme-coupled assay of IP6K1 activity (Dipp1-coupled, malachite green Pi release)
# Experimental: (§1) […] The cells were disrupted using a constant cell disruption system (Constant Systems) under 20 kPsi.
# (§2) Pi release was determined with a malachite green colorimetric assay.^45 Where indicated, TNP (Cayman Chemical) was added to the assays (FIG. 2A-E).
# IP6K2 = IP6K2 (Homo sapiens (Human), UniProt Q9UHH9); test: Enzyme-coupled assay of IP6K2 activity (Dipp1-coupled, malachite green Pi release)
# Experimental: as §1, §2
# [1] = determined from enzyme-coupled assays
# Chain of IP6K3 (Q96PC2 whole entry): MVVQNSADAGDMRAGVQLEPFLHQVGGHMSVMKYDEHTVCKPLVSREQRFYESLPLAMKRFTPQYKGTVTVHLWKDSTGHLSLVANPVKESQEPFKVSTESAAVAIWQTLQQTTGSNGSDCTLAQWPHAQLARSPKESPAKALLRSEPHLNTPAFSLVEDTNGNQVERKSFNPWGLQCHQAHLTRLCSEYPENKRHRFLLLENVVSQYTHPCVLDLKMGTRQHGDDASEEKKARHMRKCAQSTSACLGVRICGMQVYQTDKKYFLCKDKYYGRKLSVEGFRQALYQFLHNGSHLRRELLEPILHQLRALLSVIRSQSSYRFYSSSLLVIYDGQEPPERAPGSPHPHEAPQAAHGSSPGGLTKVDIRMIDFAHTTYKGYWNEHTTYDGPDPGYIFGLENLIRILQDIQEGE
# Chain of IP6K2 (Q9UHH9 whole entry): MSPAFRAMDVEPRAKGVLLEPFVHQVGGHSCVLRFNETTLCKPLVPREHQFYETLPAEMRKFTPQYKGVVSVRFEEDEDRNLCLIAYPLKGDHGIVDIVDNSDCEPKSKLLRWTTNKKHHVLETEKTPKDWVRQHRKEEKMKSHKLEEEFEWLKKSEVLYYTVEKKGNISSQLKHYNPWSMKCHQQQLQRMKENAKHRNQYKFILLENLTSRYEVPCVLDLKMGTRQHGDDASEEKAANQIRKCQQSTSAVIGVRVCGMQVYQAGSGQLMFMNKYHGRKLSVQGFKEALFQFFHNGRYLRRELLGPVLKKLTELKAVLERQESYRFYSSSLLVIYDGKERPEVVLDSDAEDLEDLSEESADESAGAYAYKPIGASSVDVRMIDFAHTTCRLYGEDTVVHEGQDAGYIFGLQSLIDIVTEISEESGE
# Chain of IPMK (Q8NFU5 whole entry, species assumed): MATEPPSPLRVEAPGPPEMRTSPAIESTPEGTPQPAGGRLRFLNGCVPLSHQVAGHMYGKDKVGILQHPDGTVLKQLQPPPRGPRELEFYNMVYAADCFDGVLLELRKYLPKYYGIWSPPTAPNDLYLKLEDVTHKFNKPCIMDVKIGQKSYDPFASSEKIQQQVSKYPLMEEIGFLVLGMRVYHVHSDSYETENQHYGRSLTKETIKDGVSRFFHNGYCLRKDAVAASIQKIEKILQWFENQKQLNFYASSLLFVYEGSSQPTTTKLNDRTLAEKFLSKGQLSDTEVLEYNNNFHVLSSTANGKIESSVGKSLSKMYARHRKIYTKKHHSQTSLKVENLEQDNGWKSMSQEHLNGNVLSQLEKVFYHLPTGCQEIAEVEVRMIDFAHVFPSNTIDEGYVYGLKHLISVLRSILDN
# Chain of IP6K1 (Q92551 whole entry): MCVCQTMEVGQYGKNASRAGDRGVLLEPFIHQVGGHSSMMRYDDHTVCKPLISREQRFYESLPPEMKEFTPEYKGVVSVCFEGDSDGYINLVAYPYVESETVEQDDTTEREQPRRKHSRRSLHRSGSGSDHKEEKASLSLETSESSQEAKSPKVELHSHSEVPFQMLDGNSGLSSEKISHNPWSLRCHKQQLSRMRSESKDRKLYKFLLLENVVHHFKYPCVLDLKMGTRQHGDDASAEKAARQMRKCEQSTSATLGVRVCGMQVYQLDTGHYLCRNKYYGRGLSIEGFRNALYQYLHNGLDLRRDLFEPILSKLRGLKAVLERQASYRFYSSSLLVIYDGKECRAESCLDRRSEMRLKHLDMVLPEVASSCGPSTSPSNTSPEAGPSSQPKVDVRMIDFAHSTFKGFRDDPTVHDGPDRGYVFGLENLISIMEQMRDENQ
"pIC50 (IPMK; enzyme-coupled assay, Table 2)","pIC50 (IP6K3; enzyme-coupled assay, Table 2)","pIC50 (IP6K2; enzyme-coupled assay, Table 4)","pIC50 (IPMK; enzyme-coupled assay, Table 4)","pIC50 (IP6K3; enzyme-coupled assay, Table 4)",further results,SMILES
4.00 to 6.00,6.00 to 7.00,,,,,O=C(O)c1ccc2noc(-c3ccc(NC(=O)C4CCCC4)cc3)c2c1 [Compound 43]
4.00 to 6.00,6.00 to 7.00,,,,"pIC50 (IP6K1; enzyme-coupled assay, Table 2): 4.00 to 6.00; pIC50 (IP6K2; enzyme-coupled assay, Table 2): 4.00 to 6.00",O=C(O)c1ccc2noc(-c3ccc(NC(=O)C4CC4)cc3)c2c1 [Compound 35]
6.00 to 7.00,4.00 to 6.00,,,,,Cc1cc(C)cc(-c2onc3ccc(C(=O)O)cc23)c1 [Compound 19]
4.00 to 6.00,6.00 to 7.00,,,,,O=C(O)c1ccc2noc(-c3ccc(NC(=O)c4ccccc4)cc3)c2c1 [Compound 46]
4.00 to 6.00,6.00 to 7.00,,,,"pIC50 (IP6K2; enzyme-coupled assay, Table 2): 6.00 to 7.00",CC(C)NC(=O)c1ccc(-c2onc3ccc(C(=O)O)cc23)cc1 [Compound 38]
4.00 to 6.00,4.00 to 6.00,,,,"pIC50 (IP6K1; enzyme-coupled assay, Table 2): 6.00 to 7.00",O=C(O)c1ccc2noc(-c3ccc(Oc4ncc(Cl)cc4Cl)cc3)c2c1 [Compound 28]
,,,,,"pIC50 (IPMK; enzyme-coupled assay, Table 3): 7.00 to 8.00; pIC50 (IP6K3; enzyme-coupled assay, Table 3): 6.00 to 7.00",O=C(O)c1ccc2noc(-c3ccc(-c4ccncc4)cc3)c2c1 [Compound 58]
6.00 to 7.00,6.00 to 7.00,,,,,O=C(O)c1ccc2noc(-c3ccc(Oc4ccccc4)cc3)c2c1 [Compound 24]
,,7.00 to 8.00,7.00 to 8.00,6.00 to 7.00,"pIC50 (IP6K1; enzyme-coupled assay, Table 4): 7.00 to 8.00",COc1ccccc1-c1onc2ccc(-c3nnn[nH]3)cc12 [Compound 77]
,,,,,"pIC50 (IP6K1; enzyme-coupled assay, Table 6): 4.00 to 6.00; pIC50 (IP6K2; enzyme-coupled assay, Table 6): 4.00 to 6.00; pIC50 (IP6K3; enzyme-coupled assay, Table 6): 6.00 to 7.00",O=C(O)c1ccc2onc(-c3ccccc3)c2c1 [Cmpd 91]
4.00 to 6.00,4.00 to 6.00,,,,"pIC50 (IP6K1; enzyme-coupled assay, Table 2): 6.00 to 7.00; pIC50 (IP6K2; enzyme-coupled assay, Table 2): 6.00 to 7.00",O=C(O)c1ccc2noc(-c3ccc(NC(=O)c4ccc(Cl)cc4)cc3)c2c1 [Compound 45]
,4.00 to 6.00,,,,"IPMK IC50 (IPMK; enzyme-coupled assay, Table 2): −","Cc1cccc(-c2onc3ccc(C(=O)O)cc23)c1 [Compound 18, 3-(m-tolyl)benzo[c]isoxazole-5-carboxylic acid]"
7.00 to 8.00,6.00 to 7.00,,,,"pIC50 (IP6K2; enzyme-coupled assay, Table 2): 6.00 to 7.00",O=C(O)c1ccc2noc(-c3cccc(-c4ccccc4)c3)c2c1 [Compound 34]
,,,,,pIC50 (IP6K1; [1]): 7.00 to 8.00; pIC50 (IP6K2; [1]): 7.00 to 8.00; pIC50 (IPMK; [1]): > 8.00; pIC50 (IP6K3; [1]): > 8.00,O=c1[nH]c(-c2ccc3noc(-c4ccc(-c5ccccc5)cc4)c3c2)no1 [Cmpd 125]
,,7.00 to 8.00,7.00 to 8.00,6.00 to 7.00,"pIC50 (IP6K1; enzyme-coupled assay, Table 4): 7.00 to 8.00",c1ccc(-c2onc3ccc(-c4nnn[nH]4)cc23)cc1 [Compound 59]
,,,,,"pIC50 (IP6K3; enzyme-coupled assay, Table 1): 4.00 to 6.00",O=C(O)/C=C/c1ccc2noc(-c3ccc(OC(F)(F)F)cc3)c2c1 [Compound 14]
,,,,,"pIC50 (IPMK; enzyme-coupled assay, Table 3): 7.00 to 8.00; pIC50 (IP6K3; enzyme-coupled assay, Table 3): 4.00 to 6.00","O=C(O)c1ccc2noc(-c3ccc(Cc4ccccc4)cc3)c2c1 [Compound 54, 3-(4-benzylphenyl)benzo[c]isoxazole-5-carboxylic acid]"
,,7.00 to 8.00,7.00 to 8.00,6.00 to 7.00,"pIC50 (IP6K1; enzyme-coupled assay, Table 4): 7.00 to 8.00",Cc1cc(C)cc(-c2onc3ccc(-c4nnn[nH]4)cc23)c1 [Compound 65]
,,7.00 to 8.00,> 8.00,7.00 to 8.00,"pIC50 (IP6K1; enzyme-coupled assay, Table 4): 7.00 to 8.00",O=C(Nc1cccc(-c2onc3ccc(-c4nnn[nH]4)cc23)c1)C1CC1 [Compound 74]
,,,,,"pIC50 (IP6K1; enzyme-coupled assay, Table 1): 6.00 to 7.00; pIC50 (IP6K2; enzyme-coupled assay, Table 1): 6.00 to 7.00; pIC50 (IP6K3; enzyme-coupled assay, Table 1): 6.00 to 7.00",Cc1cc(C)cc(-c2onc3ccc(/C=C/C(=O)O)cc23)c1 [Compound 11]
,,,,,pIC50 (IP6K1; [1]): 6.00 to 7.00; pIC50 (IP6K2; [1]): 6.00 to 7.00; pIC50 (IPMK; [1]): 7.00 to 8.00; pIC50 (IP6K3; [1]): 7.00 to 8.00,O=C(Nc1ccc(-c2onc3ccc(-c4noc(=O)[nH]4)cc23)cc1)C1CC1 [Cmpd 126]
,,4.00 to 6.00,7.00 to 8.00,4.00 to 6.00,"pIC50 (IP6K1; enzyme-coupled assay, Table 4): 4.00 to 6.00",c1ccc(-c2onc3ccc(-n4cncn4)cc23)cc1 [Compound 61]
,,,,,"pIC50 (IPMK; enzyme-coupled assay, Table 3): 4.00 to 6.00; pIC50 (IP6K3; enzyme-coupled assay, Table 3): 4.00 to 6.00",O=C(O)c1ccc2noc(-c3ccc(N4CCCC4=O)cc3)c2c1 [Compound 56]
,,,,,"pIC50 (IP6K1; enzyme-coupled assay, Table 1): 7.00 to 8.00; pIC50 (IP6K2; enzyme-coupled assay, Table 1): 7.00 to 8.00; pIC50 (IP6K3; enzyme-coupled assay, Table 1): 4.00 to 6.00",Cc1cc(C)cc(-c2onc3ccc([C@@H]4C[C@H]4C(=O)O)cc23)c1 [Compound 17]
,,7.00 to 8.00,7.00 to 8.00,6.00 to 7.00,"pIC50 (IP6K1; enzyme-coupled assay, Table 4): 7.00 to 8.00",FC(F)(F)Oc1ccc(-c2onc3ccc(-c4nnn[nH]4)cc23)cc1 [Compound 66]
,,7.00 to 8.00,7.00 to 8.00,6.00 to 7.00,"pIC50 (IP6K1; enzyme-coupled assay, Table 4): 7.00 to 8.00",Fc1ccc(-c2onc3ccc(-c4nnn[nH]4)cc23)cc1 [Compound 63]
